Results from US20060089378A1 (priority 2004, published 2006).
Read-outs that look alike come from different tables or passages of the source.

Assays:
Cannabinoid CB1 Receptor = molecular target: T1, Cannabinoid CB1 Receptor (Homo sapiens, UniProt P21554); assay: Binding assay for CB1 agonists or inverse agonists (radioligand competition, membranes of transfected SK-N-MC cells); conditions: for inhibition at 0.2 µM: read-out: Cannabinoid CB1 Receptor Binding percent inhibition
T1 construct: expressed in transfected cells

Cannabinoid CB2 Receptor = molecular target: T2, Cannabinoid CB2 Receptor (Homo sapiens, UniProt P34972); assay: Binding assay for CB2 agonists or inverse agonists (radioligand competition, membranes of transfected SK-N-MC cells); conditions: for inhibition at 0.2 µM: read-out: Cannabinoid CB2 Receptor Binding percent inhibition
T2 construct: expressed in transfected cells

[1] = test concentration of 0.2 μM, compounds without an IC50 binding value

T1 sequence (P21554 whole entry): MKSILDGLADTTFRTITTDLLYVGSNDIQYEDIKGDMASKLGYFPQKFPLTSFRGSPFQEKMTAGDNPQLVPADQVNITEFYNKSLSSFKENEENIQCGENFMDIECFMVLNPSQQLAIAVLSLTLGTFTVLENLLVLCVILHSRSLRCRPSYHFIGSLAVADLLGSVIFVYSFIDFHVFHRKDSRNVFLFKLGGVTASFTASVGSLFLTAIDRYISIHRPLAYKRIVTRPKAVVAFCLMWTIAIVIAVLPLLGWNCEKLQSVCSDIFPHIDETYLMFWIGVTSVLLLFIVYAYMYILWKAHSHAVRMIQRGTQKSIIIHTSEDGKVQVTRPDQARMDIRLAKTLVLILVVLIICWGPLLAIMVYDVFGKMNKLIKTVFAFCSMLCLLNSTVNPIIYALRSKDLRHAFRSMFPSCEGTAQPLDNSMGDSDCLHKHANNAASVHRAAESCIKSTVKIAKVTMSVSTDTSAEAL
T2 sequence (P34972 whole entry): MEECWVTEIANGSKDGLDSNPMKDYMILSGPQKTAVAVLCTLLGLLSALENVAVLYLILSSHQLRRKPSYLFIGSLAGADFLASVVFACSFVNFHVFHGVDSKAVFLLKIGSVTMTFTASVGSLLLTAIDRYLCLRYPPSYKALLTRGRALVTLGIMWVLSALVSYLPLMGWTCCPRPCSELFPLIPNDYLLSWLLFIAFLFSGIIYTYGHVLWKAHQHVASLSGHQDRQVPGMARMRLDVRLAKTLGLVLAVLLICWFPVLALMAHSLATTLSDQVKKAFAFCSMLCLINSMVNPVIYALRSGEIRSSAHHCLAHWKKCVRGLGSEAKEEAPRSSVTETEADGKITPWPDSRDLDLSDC

Q: What does the source list for `O=C(NN1CC2CCCC2C1)c1nn(-c2ccc(Cl)cc2)c2c1CNC/C2=C\c1ccc(F)cc1` (stereo not drawn) [Cpd 85, (7E)-1-(4-chloro-phenyl)-7-(4-fluoro-benzylidene)-4,5,6,7-tetrahydro-1H-pyrazolo[4,3-c]pyridine-3-carboxylic acid (hexahydro-cyclopenta[c]pyrrol-2-yl)-amide]?
A: inhibition at 0.2 µM (Cannabinoid CB1 Receptor; [1]): 45%; inhibition at 0.2 µM (Cannabinoid CB2 Receptor; [1]): 11%

Q: Which results are given for `CC12CCC(C1)C(C)(C)C2NC(=O)c1nn(C2CCCCC2)c2c1CN(C(=O)OCc1ccccc1)CC2` (stereo not drawn) [Cpd 121, 1-cyclohexyl-3-(1,3,3-trimethyl-bicyclo[2.2.1]hept-2-ylcarbamoyl)-1,4,6,7-tetrahydro-pyrazolo[4,3-c]pyridine-5-carboxylic acid benzyl ester]?
A: IC50 (Cannabinoid CB1 Receptor): 1.5 µM; IC50 (Cannabinoid CB2 Receptor): 0.09 µM

Q: Which results are given for `CC12CCC(C1)C(C)(C)C2NC(=O)c1nn(Cc2ccccc2)c2c1CN(C(=O)OCc1ccccc1)CC2` (stereo not drawn) [Cpd 108, 1-benzyl-3-(1,3,3-trimethyl-bicyclo[2.2.1]hept-2-ylcarbamoyl)-1,4,6,7-tetrahydro-pyrazolo[4,3-c]pyridine-5-carboxylic acid benzyl ester]?
A: IC50 (Cannabinoid CB1 Receptor): 0.2 µM; IC50 (Cannabinoid CB2 Receptor): 0.002 µM

Q: Which results are given for `CCNC(=O)N1C/C(=C\c2ccc(OC)cc2)c2c(c(C(=O)NN3CC4CCCC4C3)nn2-c2ccc(Cl)cc2Cl)C1` (stereo not drawn) [Cpd 101, (7E)-1-(2,4-dichloro-phenyl)-7-(4-methoxy-benzylidene)-1,4,6,7-tetrahydro-pyrazolo[4,3-c]pyridine-3,5-dicarboxylic acid 5-ethylamide 3-[(hexahydro-cyclopenta[c]pyrrol-2-yl)-amide]]?
A: inhibition at 0.2 µM (Cannabinoid CB1 Receptor; [1]): 68%; inhibition at 0.2 µM (Cannabinoid CB2 Receptor; [1]): 15%

Q: Which inhibition at 0.2 µM (Cannabinoid CB1 Receptor) does the source give for `C[C@H](NC(=O)c1nn(-c2ccc(Cl)cc2Cl)c2c1CN(C(=O)OC(C)(C)C)C/C2=C\c1ccc(F)cc1)C1CCCCC1` [Cpd 4, (7E)-3-[(1S)-1-cyclohexyl-ethylcarbamoyl]-1-(2,4-dichloro-phenyl)-7-(4-fluoro-benzylidene)-1,4,6,7-tetrahydro-pyrazolo[4,3-c]pyridine-5-carboxylic acid tert-butyl ester] here?
A: 48%

Q: And the inhibition at 0.2 µM (Cannabinoid CB2 Receptor)?
A: 9%

Q: With `COC(=O)N1C/C(=C\c2ccc(F)cc2)c2c(c(C(=O)NN3CCC(O)CC3)nn2-c2ccc(Cl)cc2Cl)C1` [Cpd 146, (7E)-1-(2,4-dichloro-phenyl)-7-(4-fluoro-benzylidene)-3-(4-hydroxy-piperidin-1-ylcarbamoyl)-1,4,6,7-tetrahydro-pyrazolo[4,3-c]pyridine-5-carboxylic acid methyl ester] as the compound, how does the inhibition at 0.2 µM (Cannabinoid CB1 Receptor; [1]) read?
A: 40%

Q: What about the inhibition at 0.2 µM (Cannabinoid CB2 Receptor; [1]) of the same compound?
A: 11%

Q: Which inhibition at 0.2 µM (Cannabinoid CB1 Receptor; [1]) does the source give for `CC(C)(C)OC(=O)N1C/C(=C\c2ccc(F)cc2)c2c(c(C(=O)NN3CC4CCCC4C3)nn2-c2ccc(Cl)cc2Cl)C1` (stereo not drawn) [Cpd 88, (7E)-1-(2,4-dichloro-phenyl)-7-(4-fluoro-benzylidene)-3-(hexahydro-cyclopenta[c]pyrrol-2-ylcarbamoyl)-1,4,6,7-tetrahydro-pyrazolo[4,3-c]pyridine-5-carboxylic acid tert-butyl ester] here?
A: 53%

Q: What about the inhibition at 0.2 µM (Cannabinoid CB2 Receptor; [1]) of the same compound?
A: 0%

Q: How did the inhibition at 0.2 µM (Cannabinoid CB1 Receptor) turn out when `C[C@H](NC(=O)c1nn(-c2ccc(Cl)cc2Cl)c2c1CNC/C2=C\c1ccc(F)cc1)C1CCCCC1` [Cpd 5, (7E)-1-(2,4-dichloro-phenyl)-7-(4-fluoro-benzylidene)-4,5,6,7-tetrahydro-1H-pyrazolo[4,3-c]pyridine-3-carboxylic acid [(1S)-1-cyclohexyl-ethyl]-amide] was run?
A: 48%

Q: And the inhibition at 0.2 µM (Cannabinoid CB2 Receptor)?
A: 8%

Q: `CCCCn1nc(C(=O)NN2CCCCC2)c2c1CCN(C(=O)OC)C2` [Cpd 102, 1-butyl-3-(piperidin-1-ylcarbamoyl)-1,4,6,7-tetrahydro-pyrazolo[4,3-c]pyridine-5-carboxylic acid methyl ester] was tested. Which inhibition at 0.2 µM (Cannabinoid CB2 Receptor; [1]) did it give?
A: 23%

Q: `CC(C)(C)OC(=O)N1CCc2c(c(C(=O)NC3C4CC5CC(C4)CC3C5)nn2C2CCCCC2)C1` (stereo not drawn) [Cpd 130, 3-(adamantan-2-ylcarbamoyl)-1-cyclohexyl-1,4,6,7-tetrahydro-pyrazolo[4,3-c]pyridine-5-carboxylic acid tert-butyl ester] was tested. Which IC50 (Cannabinoid CB1 Receptor) did it give?
A: 0.06 µM
